From ChEMBL document CHEMBL4190372, “Discovery of a Novel Oral Glucocorticoid Receptor Modulator (AZD9567) with Improved Side Effect Profile” (J Med Chem, 2018)
Converted amounts (≈) assume the structure as drawn.

What was measured:
[1] = Intrinsic clearance in rat hepatocytes assessed per million cells; format: ADME, cell-based, Hepatocyte; conditions: read-out: CLH
[2] = Clearance in rat; format: ADME, organism-based; conditions: in vivo
Glucocorticoid receptor [3] = biological target: T1, Glucocorticoid receptor (Homo sapiens, UniProt P04150)
T1 sequence (P04150 whole entry): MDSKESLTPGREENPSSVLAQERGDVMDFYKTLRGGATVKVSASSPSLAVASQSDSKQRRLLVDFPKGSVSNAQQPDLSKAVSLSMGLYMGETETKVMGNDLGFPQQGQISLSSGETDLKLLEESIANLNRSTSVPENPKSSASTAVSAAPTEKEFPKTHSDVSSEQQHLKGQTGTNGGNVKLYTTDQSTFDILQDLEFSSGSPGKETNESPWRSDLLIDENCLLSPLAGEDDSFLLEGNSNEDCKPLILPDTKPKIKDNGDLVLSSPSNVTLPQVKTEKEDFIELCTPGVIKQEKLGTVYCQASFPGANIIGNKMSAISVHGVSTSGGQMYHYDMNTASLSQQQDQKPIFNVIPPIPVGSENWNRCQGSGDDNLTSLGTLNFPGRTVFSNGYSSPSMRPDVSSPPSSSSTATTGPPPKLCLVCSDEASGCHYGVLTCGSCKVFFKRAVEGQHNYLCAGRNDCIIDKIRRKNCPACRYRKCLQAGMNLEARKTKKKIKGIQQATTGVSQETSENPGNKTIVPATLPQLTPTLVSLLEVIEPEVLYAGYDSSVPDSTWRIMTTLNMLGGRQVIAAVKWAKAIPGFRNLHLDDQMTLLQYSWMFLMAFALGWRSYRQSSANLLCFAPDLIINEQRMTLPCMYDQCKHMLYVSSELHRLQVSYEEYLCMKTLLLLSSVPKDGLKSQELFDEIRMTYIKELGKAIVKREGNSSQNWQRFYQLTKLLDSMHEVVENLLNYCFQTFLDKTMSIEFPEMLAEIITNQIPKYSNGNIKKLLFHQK
Description: Transrepression activity at glucocorticoid receptor (unknown origin) expressed in human ChaGoK1 cells assessed as inhibition of PMA-stimulated gene expression incubated for 24 hrs by beta-galactosidase reporter gene assay

Glucocorticoid receptor [4] = biological target: T1, Glucocorticoid receptor; test: Displacement of fluormone RED from human full length glucocorticoid receptor after 4 hrs by fluorescence polarization assay
[5] = Aqueous solubility of the compound; format: physicochemical
Glucocorticoid receptor [6] = biological target: T1, Glucocorticoid receptor; remark: listed apart in the source
Description: Transactivation activity at glucocorticoid receptor (unknown origin) expressed in human ChaGoK1 cells incubated for 24 hrs by beta-galactosidase reporter gene assay

Glucocorticoid receptor [7] = biological target: T1, Glucocorticoid receptor; test: Antagonist activity at glucocorticoid receptor (unknown origin) expressed in human ChaGoK1 cells assessed as inhibition of dexamethasone induced transactivation incubated for 24 hrs by beta-galactosidase reporter gene assay; format: cell-based
Glucocorticoid receptor [8] = biological target: T1, Glucocorticoid receptor; remark: listed apart in the source
Description: (§1) Transrepression of GR in human whole blood assessed as inhibition of LPS-induced TNF-alpha release preincubated for 45 mins followed by LPS addition after 18 hrs by AlphaLISA method

Glucocorticoid receptor [9] = biological target: T1, Glucocorticoid receptor; conditions: blood
Description: Therapeutic index, ratio of fIC20 for transrepression of GR in cryopreserved human fetal osteoblasts assessed as inhibition of OPG mRNA expression to fIC30 for transrepression of GR in human whole blood assessed as inhibition of LPS-induced TNF-alpha release

[10] = biological target: T2, Glucocorticoid receptor (Homo sapiens) (UniProt P04150)
T2 sequence (whole entry): T1 sequence (P04150 whole entry)
Description: Transrepression of GR in cryopreserved human fetal osteoblasts assessed as inhibition of OPG mRNA expression after 4 hrs by RT-qPCR analysis

[11] = biological target: T2, Glucocorticoid receptor (Homo sapiens); remark: listed apart in the source
Description: as §1

Hepatocyte [12] = test: Stability in rat hepatocytes; format: ADME, cell-based
Hepatocyte [13] = test: Stability in human hepatocytes; format: ADME, cell-based

| Structure (SMILES) | IC50 (Glucocorticoid receptor [3]) [µM] | IC50 (Glucocorticoid receptor [4]) [µM] | solubility ([5]; aqueous, read-out: solubility) [µM] | EC50 (Glucocorticoid receptor [6]) [µM] | IC50 (Glucocorticoid receptor [7]) [µM] | also measured |
| --- | --- | --- | --- | --- | --- | --- |
| C[C@H](NC(=O)C(C)(F)F)[C@H](Oc1ccc(C#N)cc1Cl)c1cnc(C2CC2)nc1 | 0.0078 | < 0.0041 | 430 (≈ 181 µg/mL) | 0.021 | – | hepatocyte CLint [1]: 3.4 µL/min/1e6 cells; clearance [2]: 0.438 L/h/kg |
| N#Cc1ccc(O[C@H](c2cnc(C3CC3)nc2)[C@H](CO)NC(=O)C(F)(F)F)c(Br)c1 | – | 0.042 | > 730 | – | – | – |
| COc1ccc([C@@H](Oc2ccc3c(cnn3-c3ccc(F)cc3)c2)[C@H](Cc2ccccc2)NC(=O)C(C)(F)F)cn1 | 0.002 | 0.032 | < 0.1 | 0.0087 | 0.092 | – |
| COc1ccc([C@@H](Oc2ccc3c(cnn3-c3ccc(F)cc3)c2)[C@@H](NC(=O)C(C)(F)F)C(C)C)cn1 | 0.00057 | 0.018 | < 0.01 | 0.0035 | 0.07 | – |
| CCS(=O)(=O)c1cc2cc(C[C@](O)(CC(C)(C)c3ccc(F)cc3C(N)=O)C(F)(F)F)[nH]c2cn1 [BI 653048] | – | – | – | – | – | solubility ([5]; buffer): 160 µM (≈ 82.5 µg/mL) |
| CC(C)[C@H](NC(=O)C(C)(F)F)[C@H](Oc1ccc2c(cnn2-c2ccns2)c1)c1ccccc1 | 0.039 | – | 0.96 (≈ 0.452 µg/mL) | – | – | – |
| COc1ccc([C@@H](Oc2ccc3c(cnn3-c3ccc(F)cc3)c2)[C@H](C)NC(=O)C2CC2)cn1 | – | – | 1 (≈ 0.461 µg/mL) | – | – | – |
| COc1ccc([C@@H](Oc2ccc(C#N)cc2)[C@H](C)NC(=O)C(C)(F)F)cn1 | 0.07 | < 0.0068 | 290 (≈ 109 µg/mL) | – | – | – |
| C[C@H](NC(=O)C(C)(F)F)[C@H](Oc1ccc(C#N)cc1Br)c1cnc(C2CC2)nc1 | 0.0011 | 0.0024 | 110 (≈ 51.2 µg/mL) | 0.0064 | – | Stability (Hepatocyte [12]): Stable; Stability (Hepatocyte [13]): Stable |
| CC[C@H](NC(=O)C(F)(F)F)[C@H](Oc1ccc(C#N)cc1Br)c1cnc(C2CC2)nc1 | 0.0096 | 0.0093 | 110 (≈ 53.2 µg/mL) | 0.054 | 0.56 | Stability (Hepatocyte [12]): Stable; Stability (Hepatocyte [13]): Stable |
| CC(C)[C@H](NC(=O)C(C)(F)F)[C@H](Oc1ccc2c(cnn2-c2cscn2)c1)c1ccccc1 | 0.0033 | 0.052 | 5.8 (≈ 2.73 µg/mL) | 0.029 | 0.131 | – |
| COc1ccc([C@@H](Oc2ccc3c(cnn3-c3ccc(F)cc3)c2)[C@H](COC(C)(C)C)NC(=O)C(C)(F)F)cn1 | – | – | < 0.01 | – | – | – |
| COc1ccc([C@@H](Oc2ccc(C#N)cc2Cl)[C@H](C)NC(=O)C(C)(F)F)cn1 | 0.016 | 0.0071 | 85 (≈ 34.8 µg/mL) | 0.043 | – | hepatocyte CLint [1]: 93 µL/min/1e6 cells; clearance [2]: 1.32 L/h/kg |
| C[C@H](NC(=O)C(F)(F)F)[C@H](Oc1ccc(C#N)cc1Br)c1cnc(C2CC2)nc1 | 0.0025 | 0.0024 | 97 (≈ 45.5 µg/mL) | 0.023 | – | Stability (Hepatocyte [12]): Stable; Stability (Hepatocyte [13]): Stable |
| N#Cc1ccc(O[C@H](c2cnc(C3CC3)nc2)[C@@H](NC(=O)C(F)(F)F)C2CC2)c(Br)c1 | 0.021 | 0.014 | 86 (≈ 42.6 µg/mL) | – | 0.221 | IC50 (Glucocorticoid receptor [8]): 0.34 µM; TI (Glucocorticoid receptor [9]): 0.014; Stability (Hepatocyte [12]): Stable; fIC20 [10]: 0.5 nM; fIC30 [11]: 36 nM; Stability (Hepatocyte [13]): Stable |
| CC#C[C@]1(O)CC[C@H]2[C@@H]3CCC4=CC(=O)CCC4=C3[C@@H](c3ccc(N(C)C)cc3)C[C@@]21C [MIFEPRISTONE] | – | – | 6.9 (≈ 2.96 µg/mL) | – | – | – |
| Cc1ncccc1NC(=O)c1ccc2c(c1)CC[C@@H]1C[C@@](O)(C(F)(F)F)CC[C@@]21Cc1ccccc1 [DAGROCORAT] | 0.00069 | < 0.0072 | 3.2 (≈ 1.58 µg/mL) | 0.0048 | 0.0089 | IC50 (Glucocorticoid receptor [8]): 0.035 µM; TI (Glucocorticoid receptor [9]): 0.029; fIC20 [10]: 0.0667 nM; fIC30 [11]: 2.3 nM |
| CC(C)(C)OC[C@H](NC(=O)C(F)(F)F)[C@H](Oc1ccc(C#N)cc1Br)c1cnc(C2CC2)nc1 | – | 0.16 | 18 (≈ 9.74 µg/mL) | – | 0.516 | Stability (Hepatocyte [12]): Stable; Stability (Hepatocyte [13]): Stable |

Second part, led by results:

| IC50 (Glucocorticoid receptor [3]) [µM] | IC50 (Glucocorticoid receptor [4]) [µM] | solubility ([5]; aqueous, read-out: solubility) [µM] | EC50 (Glucocorticoid receptor [6]) [µM] | IC50 (Glucocorticoid receptor [7]) [µM] | Structure (SMILES) | also measured |
| --- | --- | --- | --- | --- | --- | --- |
| – | – | 51 (≈ 24.5 µg/mL) | – | – | CC[C@H](NC(=O)C(C)(F)F)[C@H](Oc1ccc2c(cnn2-c2ccc(=O)n(C)c2)c1)c1ccccc1 | – |
| – | – | 22 (≈ 10.9 µg/mL) | – | – | CCC[C@H](NC(=O)C(C)(F)F)[C@H](Oc1ccc2c(cnn2-c2ccc(=O)n(C)c2)c1)c1ccccc1 | – |
| 0.027 | 0.0072 | 11 (≈ 5.72 µg/mL) | 0.11 | – | CC(C)[C@H](NC(=O)C(C)(F)F)[C@H](Oc1ccc2c(cnn2-c2cc(C#N)c(=O)n(C)c2)c1)c1ccccc1 | – |
| 0.0022 | 0.0047 | 21 (≈ 11.1 µg/mL) | 0.0027 | 0.023 | CC(C)[C@H](NC(=O)C(C)(F)F)[C@H](Oc1ccc2c(cnn2-c2ccc(=O)n(C)c2)c1)c1cc(F)cc(F)c1 | IC50 (Glucocorticoid receptor [8]): 0.12 µM; TI (Glucocorticoid receptor [9]): 0.17; fIC20 [10]: 0.12 nM; fIC30 [11]: 0.7 nM |
| – | – | 48 (≈ 23.6 µg/mL) | – | – | Cn1cc(-n2ncc3cc(O[C@H](c4ccccc4)[C@@H](NC(=O)C(C)(F)F)C4CC4)ccc32)ccc1=O | – |
| 0.003 | < 0.003 | 9.6 (≈ 5.12 µg/mL) | 0.0056 | 0.114 | CC(C)[C@H](NC(=O)C(F)(F)F)[C@H](Oc1ccc2c(cnn2-c2ccc(=O)n(C)c2)c1)c1cccc(Cl)c1 | IC50 (Glucocorticoid receptor [8]): 0.42 µM; TI (Glucocorticoid receptor [9]): 0.58; fIC20 [10]: 0.92 nM; fIC30 [11]: 1.6 nM |
| – | – | 250 (≈ 124 µg/mL) | – | – | CC(O)[C@H](NC(=O)C(C)(F)F)[C@H](Oc1ccc2c(cnn2-c2ccc(=O)n(C)c2)c1)c1ccccc1 (stereo not given in full) | – |
| – | 0.057 | < 0.5 | – | – | COc1ccc(-n2ncc3cc(O[C@H](c4ccccc4)[C@@H](NC(=O)C(C)(F)F)C(C)C)ccc32)cn1 | – |
| 0.011 | 0.0061 | 160 (≈ 79.1 µg/mL) | 0.027 | – | CC(C)[C@H](NC(=O)C(C)(F)F)[C@H](Oc1ccc2c(cnn2-c2cccn(C)c2=O)c1)c1ccccc1 | – |
| < 0.00042 | 0.016 | < 0.1 | 0.0054 | 0.025 | CC(C)[C@H](NC(=O)C(F)(F)F)[C@H](Oc1ccc2c(cnn2-c2ccc(F)cc2)c1)c1ccccc1 | – |
| 0.0017 | 0.0026 | 10 (≈ 5.29 µg/mL) | 0.0029 | 0.324 | CC(C)[C@H](NC(=O)C(C)(F)F)[C@H](Oc1ccc2c(cnn2-c2ccc(=O)n(C)c2)c1)c1cccc(Cl)c1 | – |
| 0.051 | – | 5.1 (≈ 2.53 µg/mL) | 0.087 | – | CC(C)[C@H](NC(=O)C(C)(F)F)[C@H](Oc1ccc2c(cnn2-c2cnc(=O)n(C)c2)c1)c1ccccc1 | – |
| – | – | 20 (≈ 10.1 µg/mL) | – | – | Cn1cc(-n2ncc3cc(O[C@H](c4ccccc4)[C@H](CC4CC4)NC(=O)C(C)(F)F)ccc32)ccc1=O | – |
| 0.0016 | – | 140 (≈ 65.3 µg/mL) | 0.0023 | – | C[C@H](NC(=O)C(C)(F)F)[C@H](Oc1ccc2c(cnn2-c2ccc(=O)n(C)c2)c1)c1ccccc1 | – |
| 0.0056 | < 0.0032 | 14 (≈ 7.18 µg/mL) | 0.018 | 0.301 | CC(C)[C@H](NC(=O)C(C)(F)F)[C@H](Oc1ccc2c(cnn2-c2cc(F)c(=O)n(C)c2)c1)c1ccccc1 | – |
| < 0.00034 | < 0.014 | < 0.08 | 0.0039 | 0.013 | CC(C)[C@H](NC(=O)C(C)(F)F)[C@H](Oc1ccc2c(cnn2-c2ccc(F)cc2)c1)c1ccccc1 | – |
